Laboratory results reported in PubChem BioAssay AID330 (DTP/NCI, 2004).
Several values for one entry are separate records, joined by “and”; a condition that tells them apart may be missing. Equal values may be shown once. Inconclusive results and toxic doses are left out. How the source made its calls: active means survival T/C of 150% or more; inactive means T/C below 125% in these data.

Test system: P388 leukemia ip, CD2F1 mice, survival T/C
Test: NCI In Vivo Anticancer Drug Screen. Data for tumor model P388 Leukemia (intraperitoneal) in CD2F1 (CDF1) mice
Settings: endpoint: median survival time, higher = longer survival
How it was run: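 Mice carrying the transplanted tumor received test compound or vehicle. Survival was recorded in each group, and the value is the treated-group measurement divided by that of the vehicle-treated control group.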

[1] = dose: 7.5 mg/kg/injection, schedule: Q01DX005 (ip), vehicle: Klucel (hydroxypropylcellulose) (HPC)
[2] = dose: 15.0 mg/kg/injection, schedule: Q01DX005 (ip), vehicle: Klucel (hydroxypropylcellulose) (HPC)
[3] = dose: 50.0 mg/kg/injection, schedule: Q01DX005 (ip), vehicle: Klucel (hydroxypropylcellulose) (HPC)
[4] = dose: 100.0 mg/kg/injection, schedule: Q01DX005 (ip), vehicle: Klucel (hydroxypropylcellulose) (HPC)
[5] = dose: 200.0 mg/kg/injection, schedule: Q01DX005 (ip), vehicle: Klucel (hydroxypropylcellulose) (HPC)
[6] = dose: 15.0 mg/kg/injection, schedule: Q01DX005 (ip), vehicle: saline with Tween-80
[7] = dose: 30.0 mg/kg/injection, schedule: Q01DX005 (ip), vehicle: saline with Tween-80
[8] = dose: 120.0 mg/kg/injection, schedule: Q01DX005 (ip), vehicle: saline with Tween-80
[9] = dose: 100.0 mg/kg/injection, schedule: Q04DX003 (ip), vehicle: saline with Tween-80
[10] = dose: 200.0 mg/kg/injection, schedule: Q04DX003 (ip), vehicle: saline with Tween-80
[11] = dose: 100.0 mg/kg/injection, schedule: Q01DX009 (ip), vehicle: saline with Tween-80
[12] = dose: 50.0 mg/kg/injection, schedule: Q01DX009 (ip), vehicle: saline
[13] = dose: 100.0 mg/kg/injection, schedule: Q01DX009 (ip), vehicle: saline
[14] = dose: 60.0 mg/kg/injection, schedule: Q01DX005 (ip), vehicle: saline with Tween-80
[15] = dose: 240.0 mg/kg/injection, schedule: Q01DX005 (ip), vehicle: saline with Tween-80

Measured: T/C

CC(C)[C@@H](C)/C=C/[C@@H](C)[C@H]1CC[C@@H]2[C@]1(C)CC[C@H]1[C@]23C=C[C@]2(C[C@@H](O)CC[C@]12C)OO3
inactive: dose: 3.75 mg/kg/injection, schedule: Q01DX005 (ip), vehicle: Klucel (hydroxypropylcellulose) (HPC) 93 % of control | [1] 93 % of control | [2] 86 % of control | dose: 25.0 mg/kg/injection, schedule: Q01DX005 (ip), vehicle: Klucel (hydroxypropylcellulose) (HPC) 90 % of control | dose: 30.0 mg/kg/injection, schedule: Q01DX005 (ip), vehicle: Klucel (hydroxypropylcellulose) (HPC) 90 % of control | [3] 89 % of control | [4] 86 % of control | [5] 98 % of control

CCc1nc(N)nc(N)c1-c1ccc(NCCCCCCCCCCCCN)c([N+](=O)[O-])c1
inactive: [6] 117 % of control | [7] 107 % of control | [8] 91 % of control

Cc1ccc2c(c1)C(=O)c1ccccc1/C2=C1\c2ccccc2C(=O)c2cc(C)ccc21
inactive: dose: 50.0 mg/kg/injection, schedule: Q01DX005 (ip), vehicle: Klucel + Tween-80 105 % of control | dose: 100.0 mg/kg/injection, schedule: Q01DX005 (ip), vehicle: Klucel + Tween-80 89 % of control | dose: 200.0 mg/kg/injection, schedule: Q01DX005 (ip), vehicle: Klucel + Tween-80 89 % of control

COC(=O)/C=C\C=[N+](/[O-])C(C)(C)C
inactive: dose: 12.5 mg/kg/injection, schedule: Q01DX001 (ip), vehicle: Klucel (hydroxypropylcellulose) (HPC) 114 % of control | dose: 25.0 mg/kg/injection, schedule: Q01DX001 (ip), vehicle: Klucel (hydroxypropylcellulose) (HPC) 113 % of control | dose: 50.0 mg/kg/injection, schedule: Q01DX001 (ip), vehicle: Klucel (hydroxypropylcellulose) (HPC) 113 % of control

O=S(=O)(F)C(Br)(Br)S(=O)(=O)F
inactive: [3] 97 % of control | [4] 97 % of control

Cc1ccc(/C=C/C(=O)C(CN(C)C)CN(C)C)cc1C
inactive: dose: 6.25 mg/kg/injection, schedule: Q01DX005 (ip), vehicle: saline with Tween-80 100 % of control | dose: 12.5 mg/kg/injection, schedule: Q01DX005 (ip), vehicle: saline with Tween-80 109 % of control

Cc1cc2nc(CN(CCN(Cc3nc4cc(C)c(C)cc4[nH]3)Cc3nc4cc(C)c(C)cc4[nH]3)Cc3nc4cc(C)c(C)cc4[nH]3)[nH]c2cc1C
inactive: dose: 12.5 mg/kg/injection, schedule: Q01DX001 (ip), vehicle: saline with Tween-80 106 % of control | dose: 25.0 mg/kg/injection, schedule: Q01DX001 (ip), vehicle: saline with Tween-80 116 % of control | dose: 50.0 mg/kg/injection, schedule: Q01DX001 (ip), vehicle: saline with Tween-80 116 % of control

Cc1cc(Cl)c2ccccc2c1N
inactive: [9] 100 % of control | dose: 200.0 mg/kg/injection, schedule: Q01DX009 (ip), vehicle: other 105 % of control | [10] 95 % of control | dose: 400.0 mg/kg/injection, schedule: Q01DX009 (ip), vehicle: other 90 % of control | dose: 400.0 mg/kg/injection, schedule: Q04DX003 (ip), vehicle: saline with Tween-80 100 % of control

O=C(CN1CCOCC1)Nc1cccc(C(F)(F)F)c1
inactive: [11] 110 % of control | dose: 200.0 mg/kg/injection, schedule: Q01DX009 (ip), vehicle: saline with Tween-80 100 % of control | dose: 400.0 mg/kg/injection, schedule: Q01DX009 (ip), vehicle: saline with Tween-80 110 % of control

COc1cc2c(/C=N/NC(N)=S)c(Cl)[nH]c2cc1C
inactive: dose: 25.0 mg/kg/injection, schedule: Q04DX003 (ip), vehicle: saline with Tween-80 105 % of control | dose: 50.0 mg/kg/injection, schedule: Q04DX003 (ip), vehicle: saline with Tween-80 107 % of control | dose: 100.0 mg/kg/injection, schedule: Q01DX001 (ip), vehicle: saline with Tween-80 102 % of control | [9] 90 % of control | dose: 200.0 mg/kg/injection, schedule: Q01DX001 (ip), vehicle: saline with Tween-80 100 % of control | [10] 98 % of control | dose: 400.0 mg/kg/injection, schedule: Q01DX001 (ip), vehicle: saline with Tween-80 90 % of control

O=C(O)c1cc2c(cc1S(=O)(=O)O)C1C(C3C2C2(Cl)C(Cl)=C(Cl)C3(Cl)C2(Cl)Cl)C2(Cl)C(Cl)=C(Cl)C1(Cl)C2(Cl)Cl (configuration not stated)
inactive: [12] 105 % of control | [13] 100 % of control | dose: 200.0 mg/kg/injection, schedule: Q01DX009 (ip), vehicle: saline 100 % of control

COC(=O)c1sc(N2CCCC2)nc1N
inactive: [14] 102 % of control | [8] 99 % of control | [15] 97 % of control

BrCCC[n+]1ccc2ccccc2c1-c1nccc2ccccc12
inactive: dose: 3.12 mg/kg/injection, schedule: Q01DX001 (ip), vehicle: saline 104 % of control | dose: 6.25 mg/kg/injection, schedule: Q01DX001 (ip), vehicle: saline 98 % of control | dose: 12.5 mg/kg/injection, schedule: Q01DX001 (ip), vehicle: saline 101 % of control and 115 % of control

C/C(=C\c1cc2c(cc1Cl)OCO2)[N+](=O)[O-]
inactive: dose: 100.0 mg/kg/injection, schedule: Q04DX002 (ip), vehicle: Klucel (hydroxypropylcellulose) (HPC) 104 % of control | dose: 200.0 mg/kg/injection, schedule: Q04DX002 (ip), vehicle: Klucel (hydroxypropylcellulose) (HPC) 102 % of control | dose: 400.0 mg/kg/injection, schedule: Q04DX002 (ip), vehicle: Klucel (hydroxypropylcellulose) (HPC) 118 % of control

Cc1ccc(C(=O)OC(CCN(C)C)c2ccccc2)cc1 (configuration not stated)
inactive: [12] 109 % of control | [13] 106 % of control

Cc1[nH]c(C)c(Br)c(=O)c1F
inactive: dose: 6.25 mg/kg/injection, schedule: Q01DX009 (ip), vehicle: Klucel (hydroxypropylcellulose) (HPC) 116 % of control | dose: 12.5 mg/kg/injection, schedule: Q01DX009 (ip), vehicle: Klucel (hydroxypropylcellulose) (HPC) 110 % of control | dose: 25.0 mg/kg/injection, schedule: Q01DX009 (ip), vehicle: Klucel (hydroxypropylcellulose) (HPC) 100 % of control

O=C(O)/C(Cl)=C(\Cl)C(=O)Nc1ccc(Br)cc1
inactive: [6] 102 % of control | [7] 102 % of control | [14] 99 % of control and 111 % of control | [8] 104 % of control

COc1nc2c(nc(N)n2C2OC(COC(C)=O)C(OC(C)=O)C(OC(C)=O)C2OC(C)=O)c(=O)n1C (configuration not stated)
inactive: dose: 60.0 mg/kg/injection, schedule: Q01DX005 (ip), vehicle: saline 92 % of control | dose: 240.0 mg/kg/injection, schedule: Q01DX005 (ip), vehicle: saline 92 % of control

C=C(C)C(=O)O[C@@H]1C/C(C)=C\[C@H](OC(C)=O)C[C@](C)(O)/C=C2/OC(=O)C(COC(C)=O)=C21
inactive: dose: 5.5 mg/kg/injection, schedule: Q01DX005 (ip), vehicle: Klucel (hydroxypropylcellulose) (HPC) 105 % of control and 110 % of control | dose: 11.0 mg/kg/injection, schedule: Q01DX005 (ip), vehicle: Klucel (hydroxypropylcellulose) (HPC) 103 % of control and 109 % of control | dose: 22.0 mg/kg/injection, schedule: Q01DX005 (ip), vehicle: Klucel (hydroxypropylcellulose) (HPC) 122 % of control

O=C(O)c1ccccc1.O=C(O)c1ccccc1.O=C(O)c1ccccc1.O=C(O)c1ccccc1.[Cu].[Cu]
inactive: [1] 99 % of control | [2] 97 % of control

CC(=NCC(=O)O)c1ccccc1
inactive: dose: 25.0 mg/kg/injection, schedule: Q01DX009 (ip), vehicle: saline 104 % of control | [12] 111 % of control | [13] 109 % of control

CCC(N)Cc1cc(OC)c(C)cc1OC (configuration not stated)
inactive: dose: 25.0 mg/kg/injection, schedule: Q01DX009 (ip), vehicle: saline with Tween-80 90 % of control | dose: 50.0 mg/kg/injection, schedule: Q01DX009 (ip), vehicle: saline with Tween-80 98 % of control and 99 % of control | [11] 103 % of control

Cc1nc2c(cnn2CN2CCCCC2)c(=O)n1-c1ccccc1
inactive: [3] 100 % of control | [4] 101 % of control | [5] 107 % of control

N=C(N)SCC(=O)Nc1nc(NC(=O)CSC(=N)N)nc(NC(=O)CSC(=N)N)n1
inactive: dose: 100.0 mg/kg/injection, schedule: Q04DX002 (ip), vehicle: saline 101 % of control | dose: 200.0 mg/kg/injection, schedule: Q04DX002 (ip), vehicle: saline 99 % of control | dose: 400.0 mg/kg/injection, schedule: Q04DX002 (ip), vehicle: saline 100 % of control

C#CCSc1n[nH]c(-c2ccco2)n1
inactive: [14] 101 % of control | [8] 105 % of control | [15] 105 % of control
